Results from patent US10286034B2, “Uses of bremelanotide in therapy for female sexual dysfunction” (Palatin Technologies, Inc., priority 2012, dated 2019).
Marks after values point to notes of the source that are not given here.

Experiments:
Type in all cases: in vivo, human
[1] = Example 1: ambulatory blood pressure monitoring after in-clinic dose; details: for Pulse: treatment group difference (from placebo) in mean change: in bpm; for DBP: treatment group difference (from placebo) in mean change / SBP: treatment group difference (from placebo) in mean change: in mmHg (unit assumed); for HR-BP Product: treatment group difference (from placebo) in mean change: in mmHg·bpm (unit assumed)
Description: Ambulatory blood pressure monitoring was conducted following both placebo and randomized treatment group in-clinic administrations. Three periods of ambulatory blood pressure monitoring were included, the first period was from before to 24 hours after a single, in-clinic dose of placebo (to establish a baseline); the second and third periods occurred from before to 24 hours after each of 2 single, in-clinic doses of double-blind treatment, administered within 14 days of each other. Blood samples for pharmacokinetic analysis were collected before and at 0.5, 1.0, and 2.0 hours after each in-clinic bremelanotide single-dose treatment (double-blind only), to permit analysis of concentration-response relationships.
Mean changes in blood pressure were characterized in all subjects based on sequential supervised dosing of single-blind subcutaneous placebo and two doses of randomized study drug. The primary analysis for mean changes was the difference between treatment groups in the change from single-blind placebo to randomized drug (Visit 2 vs. Visits 5/7). There were between 86 to 100 subjects in each dose group.
Although there were an increased number of outliers for maximal changes from baseline in systolic blood pressure in drug-treated patients, the duration of these events was quite limited. The interrogation interval during ambulatory blood pressure monitoring assessments of 15 minutes allowed definition of the maximal duration of such excursions. […] The clinical significance of such changes, if any, is small.

[2] = Pharmacokinetics of subcutaneous administration in healthy adult males; details: after subcutaneous administration
Text: Results of Tmax values were compared between subcutaneous administration (SC) and intranasal (IN) administration of various doses of bremelanotide, as shown in FIG. 1.

[3] = system: healthy adult female subjects; experiment: Phase 1 single dose escalation, subcutaneous; vaginal photoplethysmography with visual sexual stimulation
Description: In a double-blind, placebo-controlled, single dose, dose escalation Phase 1 study to determine the maximum tolerated dose in healthy adult female subjects, doses of from 0.3 to 5.0 mg (0.3, 1.0, 3.0 and 5.0 mg) of bremelanotide were administered by subcutaneous injection. However, this study specifically excluded women with a diagnosis of FSD, and thus could not determine an effective dose for treatment of FSD. The study did employ a measure of pharmacodynamic effect, defined as an increase of sexual arousal response in the presence of visual sexual stimulation as measured by vaginal blood flow with vaginal photoplethysmography (using a Geer gauge device), which measures vaginal pulse amplitude.

[4] = 0.75 mg SC, interval 0-24 h, V5
[5] = 0.75 mg SC, interval 0-24 h, V7
[6] = 0.75 mg SC, interval 8-24 h, V5
[7] = 0.75 mg SC, interval 8-24 h, V7
[8] = 1.25 mg SC, interval 0-24 h, V5
[9] = 1.25 mg SC, interval 0-24 h, V7
[10] = 1.25 mg SC, interval 8-24 h, V5
[11] = 1.25 mg SC, interval 8-24 h, V7
[12] = 1.75 mg SC, interval 0-24 h, V5
[13] = 1.75 mg SC, interval 0-24 h, V7
[14] = 1.75 mg SC, interval 8-24 h, V5
[15] = 1.75 mg SC, interval 8-24 h, V7

CCCC[C@H](NC(C)=O)C(=O)N[C@H]1CC(=O)NCCCC[C@@H](C(=O)O)NC(=O)[C@H](Cc2c[nH]c3ccccc23)NC(=O)[C@H](CCCNC(=N)N)NC(=O)[C@@H](Cc2ccccc2)NC(=O)[C@H](Cc2c[nH]cn2)NC1=O [bremelanotide, Ac-Nle-cyclo(-Asp-His-D-Phe-Arg-Trp-Lys)-OH]
Pulse: treatment group difference (from placebo) in mean change ([1]; 0.75 mg SC, interval 0-4 h, V5): −5.2* | DBP: treatment group difference (from placebo) in mean change ([1]; 0.75 mg SC, interval 0-4 h, V5): 1.5 | SBP: treatment group difference (from placebo) in mean change ([1]; 0.75 mg SC, interval 0-4 h, V5): 1.8 | HR-BP Product: treatment group difference (from placebo) in mean change ([1]; 0.75 mg SC, interval 0-4 h, V5): −492.8* | Pulse: treatment group difference (from placebo) in mean change ([1]; 0.75 mg SC, interval 0-4 h, V7): −4.8* | DBP: treatment group difference (from placebo) in mean change ([1]; 0.75 mg SC, interval 0-4 h, V7): 0.6 | SBP: treatment group difference (from placebo) in mean change ([1]; 0.75 mg SC, interval 0-4 h, V7): 1.1 | HR-BP Product: treatment group difference (from placebo) in mean change ([1]; 0.75 mg SC, interval 0-4 h, V7): −491.9* | Pulse: treatment group difference (from placebo) in mean change [1, 4]: −2.2* | DBP: treatment group difference (from placebo) in mean change [1, 4]: 1.1* | SBP: treatment group difference (from placebo) in mean change [1, 4]: 1.1 | HR-BP Product: treatment group difference (from placebo) in mean change [1, 4]: −187.7 | Pulse: treatment group difference (from placebo) in mean change [1, 5]: −1.6 | DBP: treatment group difference (from placebo) in mean change [1, 5]: 1.3* | SBP: treatment group difference (from placebo) in mean change [1, 5]: 1.5 | HR-BP Product: treatment group difference (from placebo) in mean change [1, 5]: −82.3 | Pulse: treatment group difference (from placebo) in mean change ([1]; 0.75 mg SC, interval 4-8 h, V5): −6.2* | DBP: treatment group difference (from placebo) in mean change ([1]; 0.75 mg SC, interval 4-8 h, V5): 1.3 | SBP: treatment group difference (from placebo) in mean change ([1]; 0.75 mg SC, interval 4-8 h, V5): 0.9 | HR-BP Product: treatment group difference (from placebo) in mean change ([1]; 0.75 mg SC, interval 4-8 h, V5): −676.5* | Pulse: treatment group difference (from placebo) in mean change ([1]; 0.75 mg SC, interval 4-8 h, V7): −5.5* | DBP: treatment group difference (from placebo) in mean change ([1]; 0.75 mg SC, interval 4-8 h, V7): 1.7 | SBP: treatment group difference (from placebo) in mean change ([1]; 0.75 mg SC, interval 4-8 h, V7): 1.6 | HR-BP Product: treatment group difference (from placebo) in mean change ([1]; 0.75 mg SC, interval 4-8 h, V7): −503.3* | Pulse: treatment group difference (from placebo) in mean change [1, 6]: −0.4 | DBP: treatment group difference (from placebo) in mean change [1, 6]: 1.0 | SBP: treatment group difference (from placebo) in mean change [1, 6]: 0.9 | HR-BP Product: treatment group difference (from placebo) in mean change [1, 6]: 5.2 | Pulse: treatment group difference (from placebo) in mean change [1, 7]: 0.1 | DBP: treatment group difference (from placebo) in mean change [1, 7]: 1.3* | SBP: treatment group difference (from placebo) in mean change [1, 7]: 1.6 | HR-BP Product: treatment group difference (from placebo) in mean change [1, 7]: 114.9 | Pulse: treatment group difference (from placebo) in mean change ([1]; 1.25 mg SC, interval 0-4 h, V5): −5.2* | DBP: treatment group difference (from placebo) in mean change ([1]; 1.25 mg SC, interval 0-4 h, V5): 3.0* | SBP: treatment group difference (from placebo) in mean change ([1]; 1.25 mg SC, interval 0-4 h, V5): 2.4* | HR-BP Product: treatment group difference (from placebo) in mean change ([1]; 1.25 mg SC, interval 0-4 h, V5): −436.4* | Pulse: treatment group difference (from placebo) in mean change ([1]; 1.25 mg SC, interval 0-4 h, V7): −6.1* | DBP: treatment group difference (from placebo) in mean change ([1]; 1.25 mg SC, interval 0-4 h, V7): 2.2* | SBP: treatment group difference (from placebo) in mean change ([1]; 1.25 mg SC, interval 0-4 h, V7): 2.1* | HR-BP Product: treatment group difference (from placebo) in mean change ([1]; 1.25 mg SC, interval 0-4 h, V7): −583.3* | Pulse: treatment group difference (from placebo) in mean change [1, 8]: −2.9* | DBP: treatment group difference (from placebo) in mean change [1, 8]: 1.9* | SBP: treatment group difference (from placebo) in mean change [1, 8]: 1.1 | HR-BP Product: treatment group difference (from placebo) in mean change [1, 8]: −265.9 | Pulse: treatment group difference (from placebo) in mean change [1, 9]: −2.6* | DBP: treatment group difference (from placebo) in mean change [1, 9]: 1.7* | SBP: treatment group difference (from placebo) in mean change [1, 9]: 1.6* | HR-BP Product: treatment group difference (from placebo) in mean change [1, 9]: −206.5 | Pulse: treatment group difference (from placebo) in mean change ([1]; 1.25 mg SC, interval 4-8 h, V5): −6.1* | DBP: treatment group difference (from placebo) in mean change ([1]; 1.25 mg SC, interval 4-8 h, V5): 2.2* | SBP: treatment group difference (from placebo) in mean change ([1]; 1.25 mg SC, interval 4-8 h, V5): 1.4 | HR-BP Product: treatment group difference (from placebo) in mean change ([1]; 1.25 mg SC, interval 4-8 h, V5): −621.0* | Pulse: treatment group difference (from placebo) in mean change ([1]; 1.25 mg SC, interval 4-8 h, V7): −6.5* | DBP: treatment group difference (from placebo) in mean change ([1]; 1.25 mg SC, interval 4-8 h, V7): 0.9 | SBP: treatment group difference (from placebo) in mean change ([1]; 1.25 mg SC, interval 4-8 h, V7): 1.3* | HR-BP Product: treatment group difference (from placebo) in mean change ([1]; 1.25 mg SC, interval 4-8 h, V7): −669.7* | Pulse: treatment group difference (from placebo) in mean change [1, 10]: −1.5 | DBP: treatment group difference (from placebo) in mean change [1, 10]: 1.4* | SBP: treatment group difference (from placebo) in mean change [1, 10]: 0.7 | HR-BP Product: treatment group difference (from placebo) in mean change [1, 10]: −127.4 | Pulse: treatment group difference (from placebo) in mean change [1, 11]: −0.7 | DBP: treatment group difference (from placebo) in mean change [1, 11]: 1.7* | SBP: treatment group difference (from placebo) in mean change [1, 11]: 1.5* | HR-BP Product: treatment group difference (from placebo) in mean change [1, 11]: 4.2 | Pulse: treatment group difference (from placebo) in mean change ([1]; 1.75 mg SC, interval 0-4 h, V5): −4.6* | DBP: treatment group difference (from placebo) in mean change ([1]; 1.75 mg SC, interval 0-4 h, V5): 3.2* | SBP: treatment group difference (from placebo) in mean change ([1]; 1.75 mg SC, interval 0-4 h, V5): 3.1* | HR-BP Product: treatment group difference (from placebo) in mean change ([1]; 1.75 mg SC, interval 0-4 h, V5): −305.9 | Pulse: treatment group difference (from placebo) in mean change ([1]; 1.75 mg SC, interval 0-4 h, V7): −4.7* | DBP: treatment group difference (from placebo) in mean change ([1]; 1.75 mg SC, interval 0-4 h, V7): 2.6* | SBP: treatment group difference (from placebo) in mean change ([1]; 1.75 mg SC, interval 0-4 h, V7): 2.5* | HR-BP Product: treatment group difference (from placebo) in mean change ([1]; 1.75 mg SC, interval 0-4 h, V7): −375.4* | Pulse: treatment group difference (from placebo) in mean change [1, 12]: −2.2* | DBP: treatment group difference (from placebo) in mean change [1, 12]: 1.9* | SBP: treatment group difference (from placebo) in mean change [1, 12]: 1.6 | HR-BP Product: treatment group difference (from placebo) in mean change [1, 12]: −139.1 | Pulse: treatment group difference (from placebo) in mean change [1, 13]: −2.2* | DBP: treatment group difference (from placebo) in mean change [1, 13]: 1.8* | SBP: treatment group difference (from placebo) in mean change [1, 13]: 1.3 | HR-BP Product: treatment group difference (from placebo) in mean change [1, 13]: −184.1 | Pulse: treatment group difference (from placebo) in mean change ([1]; 1.75 mg SC, interval 4-8 h, V5): −6.6* | DBP: treatment group difference (from placebo) in mean change ([1]; 1.75 mg SC, interval 4-8 h, V5): 2.3* | SBP: treatment group difference (from placebo) in mean change ([1]; 1.75 mg SC, interval 4-8 h, V5): 2.1 | HR-BP Product: treatment group difference (from placebo) in mean change ([1]; 1.75 mg SC, interval 4-8 h, V5): −608.1* | Pulse: treatment group difference (from placebo) in mean change ([1]; 1.75 mg SC, interval 4-8 h, V7): −6.6* | DBP: treatment group difference (from placebo) in mean change ([1]; 1.75 mg SC, interval 4-8 h, V7): 2.2* | SBP: treatment group difference (from placebo) in mean change ([1]; 1.75 mg SC, interval 4-8 h, V7): 2.2 | HR-BP Product: treatment group difference (from placebo) in mean change ([1]; 1.75 mg SC, interval 4-8 h, V7): −624.5* | Pulse: treatment group difference (from placebo) in mean change [1, 14]: −0.8 | DBP: treatment group difference (from placebo) in mean change [1, 14]: 1.4* | SBP: treatment group difference (from placebo) in mean change [1, 14]: 0.9 | HR-BP Product: treatment group difference (from placebo) in mean change [1, 14]: −23.7 | Pulse: treatment group difference (from placebo) in mean change [1, 15]: −0.5 | DBP: treatment group difference (from placebo) in mean change [1, 15]: 1.4 | SBP: treatment group difference (from placebo) in mean change [1, 15]: 0.6 | HR-BP Product: treatment group difference (from placebo) in mean change [1, 15]: −31.3 | maximal change in systolic pressure ([1]; 1.75 mg dosing group, average of Visits 5 and 7): 3.15 mm Hg | change in blood pressure ([1]; drug treated subjects, predominantly within 4 hours of dosing): ~2 mm Hg | time to quantifiable concentrations in plasma [2]: ≤ 15 min | pharmacodynamic effect (vaginal pulse amplitude) ([3]; 0.3 or 1.0 mg subcutaneous, compared to placebo or baseline): no apparent pharmacodynamic effect | pharmacodynamic effect (vaginal pulse amplitude) ([3]; 3 and 5 mg subcutaneous): statistically significant pharmacodynamic effect | subcutaneous doses at which a pharmacodynamics effect was seen ([3]; normal female volunteers): ≥ 3 mg
